We go through six molecules from patent publication US20190330224A1, “ACC INHIBITORS AND USES THEREOF” (Gilead Apollo, LLC, priority 2015, published 2019).

In one assay the target is Fungal ACC2 (UniProt Q00955). As to conditions: read-out: Fungal ACC2 (IC50, in vitro ACC2 inhibition).
Assay [1] deals with C. parapsilosis ATCC 22019. Put plainly: Anti-Fungal Activity Assay (broth microtiter MIC), C. parapsilosis. As to conditions: Lodderomyces parapsilosis, ATCC22019, 48 h, 3 replicates; MIC recorded at 48 h; read-out: MIC C. parapsilosis ATCC 22019. Format: cell-based, Candida parapsilosis. In a few lines: (§1)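 MIC taken as visual growth inhibition versus the growth control, mostly at 48 h (soraphen also at 24 h). Following CLSI M27-A3, colonies grown overnight at 35° C on Sabouraud dextrose agar were suspended in RPMI 1640+MOPS; test agents came from 1 mg/mL DMSO stocks.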

The subject of assay [2] is Fusarium virguliforme (Fv). Description: Growth inhibition assay of fungal pathogens, Fv. As to conditions: 48 hours, read-out: Concentration at 90% Inhibition, Fv. Format: cell-based. As to the method:
(§2) Compounds of the present invention were evaluated in a growth inhibition assay to determine the ability to control the growth of fungal pathogens, such as Botrtyis cinerea (Bc). Collectotrichum graminicola (Cg), Diplodia maydis (Dm), Fusarium moniliforme (Fm), Fusarium virguliforme (Fv), Phytophthora capsici (Pc), Rhizoctonia solani (Rs), and Septoria tritici (St). Compounds to be tested were dissolved in DMSO at 2.5 mg/ml to produce compound stock solutions (“stocks”). Stocks were diluted with DMSO by a five-fold dilution in a 96-well stock plate, and two sets of final concentrations of 50, 10, and 2 ppm or 2, 0.4, and 0.08 ppm were obtained in vitro. A set of positive controls was also prepared, with various concentrations of Soraphen (2, 0.4, and 0.08 ppm), Metalaxyl (1.1, 0.22, and 0.04 ppm), and Metconazole (2, 0.4, and 0.08 ppm or 0.2, 0.04, and 0.008 ppm) after the five-fold dilutions. Negative controls on each plate included 2% DMSO, water, and a blank (media+2% DMSO). Fungal spores were isolated from previously sub-cultured plates of Botrtyis cinerea (Bc), Collectotrichum graminicola (Cg), Diplodia maydis (Dm), Fusarium moniliforme (Fm), Fusarium virguliforme (Fv), Phytophthora capsici (Pc), and Septoria tritici (St). The isolated spores were diluted to individual concentrations with a 17% V8 liquid media. For Rhizoctonia solani (Rs) and Pythium irregulare, 1.5 mm mycelial plugs were used in place of spores and ¼ Potato Dextrose Broth (PDB) was used for dilution. The spore concentrations and plug sizes were based on growth curves generated at 48 hours for each pathogen. In a second 96-well plate, the spores or mycelial plugs, media, diluted compound solutions, and controls were combined. Once the compound was added, a true final concentration of compound in each well was measured by an OD600 reading, which adjusted for any compound precipitation that might have occurred in the well. Plate readings were repeated at both 24 and 48 hours. The blank negative control was used as a background subtraction. Additional visual ratings were performed at both 24 and 48 hours for checking on precipitation and confirming efficacy. Visual and OD600 ratings of the compounds at 48 hours were compared to the 2% DMSO negative control, and the percent of pathogen growth inhibition was determined based on those values.

Another assay deals with Human ACC2 (Homo sapiens, UniProt O00763). Description: In vitro ACC2 inhibition assay (ADP-Glo), human ACC2. Format: biochemical. As to conditions: 5 nM ACC2, 20 μM ATP, 20 μM acetyl-CoA. For orientation: ADP-Glo first removes unused ATP, then detects ADP through luciferase.
Sequence of Human ACC2 (O00763 whole entry): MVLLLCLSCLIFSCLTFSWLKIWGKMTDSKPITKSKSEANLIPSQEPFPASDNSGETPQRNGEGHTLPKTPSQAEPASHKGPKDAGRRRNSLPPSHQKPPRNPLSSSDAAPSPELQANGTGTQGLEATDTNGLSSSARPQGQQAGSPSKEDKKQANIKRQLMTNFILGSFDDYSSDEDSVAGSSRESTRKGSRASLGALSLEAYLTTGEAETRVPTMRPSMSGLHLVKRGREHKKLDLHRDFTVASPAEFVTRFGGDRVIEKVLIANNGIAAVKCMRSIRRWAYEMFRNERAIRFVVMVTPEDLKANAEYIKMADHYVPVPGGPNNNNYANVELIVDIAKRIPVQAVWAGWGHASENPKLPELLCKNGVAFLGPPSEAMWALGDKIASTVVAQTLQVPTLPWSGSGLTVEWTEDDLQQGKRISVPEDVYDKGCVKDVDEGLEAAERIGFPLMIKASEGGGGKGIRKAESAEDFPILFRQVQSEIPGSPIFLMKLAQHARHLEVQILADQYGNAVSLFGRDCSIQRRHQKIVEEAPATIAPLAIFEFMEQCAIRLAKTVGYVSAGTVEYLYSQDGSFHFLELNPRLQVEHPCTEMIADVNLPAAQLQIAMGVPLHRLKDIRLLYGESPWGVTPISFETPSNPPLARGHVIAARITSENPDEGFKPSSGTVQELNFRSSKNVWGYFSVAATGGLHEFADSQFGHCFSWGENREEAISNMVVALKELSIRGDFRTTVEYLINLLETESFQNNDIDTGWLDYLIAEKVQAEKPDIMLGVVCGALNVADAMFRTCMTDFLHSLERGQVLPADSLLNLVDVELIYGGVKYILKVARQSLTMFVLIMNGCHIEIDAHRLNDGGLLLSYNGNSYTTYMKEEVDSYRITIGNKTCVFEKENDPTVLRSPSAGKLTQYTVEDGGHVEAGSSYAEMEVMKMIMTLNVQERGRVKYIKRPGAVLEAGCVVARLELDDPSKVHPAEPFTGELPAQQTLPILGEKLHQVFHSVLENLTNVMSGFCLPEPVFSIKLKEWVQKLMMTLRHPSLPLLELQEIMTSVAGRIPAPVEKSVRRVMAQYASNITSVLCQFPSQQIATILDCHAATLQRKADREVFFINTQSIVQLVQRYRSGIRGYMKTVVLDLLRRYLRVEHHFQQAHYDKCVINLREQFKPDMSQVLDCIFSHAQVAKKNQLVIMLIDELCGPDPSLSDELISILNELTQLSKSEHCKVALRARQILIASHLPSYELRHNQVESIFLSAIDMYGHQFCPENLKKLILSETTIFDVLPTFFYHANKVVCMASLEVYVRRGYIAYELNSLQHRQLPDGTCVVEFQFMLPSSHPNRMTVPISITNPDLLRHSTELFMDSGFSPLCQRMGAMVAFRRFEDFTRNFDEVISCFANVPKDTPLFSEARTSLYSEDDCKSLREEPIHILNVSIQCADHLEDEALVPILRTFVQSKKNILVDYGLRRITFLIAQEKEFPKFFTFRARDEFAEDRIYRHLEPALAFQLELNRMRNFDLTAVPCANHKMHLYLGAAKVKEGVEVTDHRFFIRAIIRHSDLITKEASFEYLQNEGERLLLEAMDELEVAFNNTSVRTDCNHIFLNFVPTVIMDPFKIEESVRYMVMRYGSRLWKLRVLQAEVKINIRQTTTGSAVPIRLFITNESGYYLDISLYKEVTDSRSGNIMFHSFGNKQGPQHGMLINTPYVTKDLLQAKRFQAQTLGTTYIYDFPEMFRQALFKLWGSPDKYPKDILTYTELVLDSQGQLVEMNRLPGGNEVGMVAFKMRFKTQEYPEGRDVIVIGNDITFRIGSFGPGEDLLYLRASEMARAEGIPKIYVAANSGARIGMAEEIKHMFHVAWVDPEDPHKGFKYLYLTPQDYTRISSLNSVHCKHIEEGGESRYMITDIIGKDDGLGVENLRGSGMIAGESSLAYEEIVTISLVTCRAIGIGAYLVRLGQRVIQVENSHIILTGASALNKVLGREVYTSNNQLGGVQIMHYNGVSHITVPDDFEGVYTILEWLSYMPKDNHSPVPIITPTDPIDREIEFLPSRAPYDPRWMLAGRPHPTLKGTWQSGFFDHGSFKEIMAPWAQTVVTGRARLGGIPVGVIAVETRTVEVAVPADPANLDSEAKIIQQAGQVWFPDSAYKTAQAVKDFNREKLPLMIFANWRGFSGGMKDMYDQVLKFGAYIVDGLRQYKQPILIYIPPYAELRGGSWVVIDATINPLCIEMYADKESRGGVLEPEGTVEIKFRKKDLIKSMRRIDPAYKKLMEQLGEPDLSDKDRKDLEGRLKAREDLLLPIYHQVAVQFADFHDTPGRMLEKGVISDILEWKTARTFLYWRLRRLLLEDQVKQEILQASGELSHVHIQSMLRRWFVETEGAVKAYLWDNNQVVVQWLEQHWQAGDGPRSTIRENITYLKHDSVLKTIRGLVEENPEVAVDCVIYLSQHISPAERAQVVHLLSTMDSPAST
The test system of another assay is Septoria tritici (St). Put plainly: Growth inhibition assay of fungal pathogens, St. In kind it is cell-based. As to conditions: Zymoseptoria tritici; 48 hours; read-out: Concentration at 90% Inhibition, St. As to the method:
as §2

The next assay has as its system C. albicans ATCC 90028. Description: Anti-Fungal Activity Assay (broth microtiter MIC), C. albicans. In kind it is cell-based, Candida albicans. As to conditions: Candida albicans, ATCC90028, 48 h, 3 replicates; MIC recorded at 48 h; read-out: MIC C. albicans ATCC 90028. In a few lines:
as §1

For assay [3] the following is noted: compound concentration 10 ppm, foliar spray, evaluated 7 days after inoculation.
The test system of assay [4] is Phytophthora capsici (Pc). Put plainly: Growth inhibition assay of fungal pathogens, Pc. Format: cell-based. As to conditions: 48 hours, read-out: Concentration at 90% Inhibition, Pc. As to the method:
as §2

Assay [5] has as its system Collectotrichum graminicola (Cg). Description: Growth inhibition assay of fungal pathogens, Cg. In kind it is cell-based. As to conditions: 48 hours; read-out: Concentration at 90% Inhibition, Cg. As to the method:
as §2

The test system of another assay is Botrtyis cinerea (Bc). Description: Growth inhibition assay of fungal pathogens, Bc. As to conditions: 48 hours; read-out: Concentration at 90% Inhibition, Bc. Format: cell-based. As to the method: as §2
In a further assay the test system is C. krusei ATCC 6258. Description: Anti-Fungal Activity Assay (broth microtiter MIC), C. krusei. In kind it is cell-based, Candida krusei. As to conditions: Pichia kudriavzevii, ATCC6258, 48 h, 3 replicates; MIC recorded at 48 h; read-out: MIC C. krusei ATCC 6258. The gist of the method:
as §1

For another assay, the system named is Rhizoctonia solani (Rs). Put plainly: Growth inhibition assay of fungal pathogens, Rs. In kind it is cell-based. As to conditions: 48 hours, read-out: Concentration at 90% Inhibition, Rs. As to the method: as §2
In assay [6] the test system is Fusarium moniliforme (Fm). Put plainly: Growth inhibition assay of fungal pathogens, Fm. Format: cell-based. As to conditions: Fusarium verticillioides; 48 hours; read-out: Concentration at 90% Inhibition, Fm. As to the method:
as §2

A further assay concerns Diplodia maydis (Dm). Put plainly: Growth inhibition assay of fungal pathogens, Dm. In kind it is cell-based. As to conditions: Stenocarpella maydis; 48 hours; read-out: Concentration at 90% Inhibition, Dm. As to the method: as §2

Converted amounts (≈) assume the structure as drawn.

Sequence of Fungal ACC2 (Q00955 whole entry): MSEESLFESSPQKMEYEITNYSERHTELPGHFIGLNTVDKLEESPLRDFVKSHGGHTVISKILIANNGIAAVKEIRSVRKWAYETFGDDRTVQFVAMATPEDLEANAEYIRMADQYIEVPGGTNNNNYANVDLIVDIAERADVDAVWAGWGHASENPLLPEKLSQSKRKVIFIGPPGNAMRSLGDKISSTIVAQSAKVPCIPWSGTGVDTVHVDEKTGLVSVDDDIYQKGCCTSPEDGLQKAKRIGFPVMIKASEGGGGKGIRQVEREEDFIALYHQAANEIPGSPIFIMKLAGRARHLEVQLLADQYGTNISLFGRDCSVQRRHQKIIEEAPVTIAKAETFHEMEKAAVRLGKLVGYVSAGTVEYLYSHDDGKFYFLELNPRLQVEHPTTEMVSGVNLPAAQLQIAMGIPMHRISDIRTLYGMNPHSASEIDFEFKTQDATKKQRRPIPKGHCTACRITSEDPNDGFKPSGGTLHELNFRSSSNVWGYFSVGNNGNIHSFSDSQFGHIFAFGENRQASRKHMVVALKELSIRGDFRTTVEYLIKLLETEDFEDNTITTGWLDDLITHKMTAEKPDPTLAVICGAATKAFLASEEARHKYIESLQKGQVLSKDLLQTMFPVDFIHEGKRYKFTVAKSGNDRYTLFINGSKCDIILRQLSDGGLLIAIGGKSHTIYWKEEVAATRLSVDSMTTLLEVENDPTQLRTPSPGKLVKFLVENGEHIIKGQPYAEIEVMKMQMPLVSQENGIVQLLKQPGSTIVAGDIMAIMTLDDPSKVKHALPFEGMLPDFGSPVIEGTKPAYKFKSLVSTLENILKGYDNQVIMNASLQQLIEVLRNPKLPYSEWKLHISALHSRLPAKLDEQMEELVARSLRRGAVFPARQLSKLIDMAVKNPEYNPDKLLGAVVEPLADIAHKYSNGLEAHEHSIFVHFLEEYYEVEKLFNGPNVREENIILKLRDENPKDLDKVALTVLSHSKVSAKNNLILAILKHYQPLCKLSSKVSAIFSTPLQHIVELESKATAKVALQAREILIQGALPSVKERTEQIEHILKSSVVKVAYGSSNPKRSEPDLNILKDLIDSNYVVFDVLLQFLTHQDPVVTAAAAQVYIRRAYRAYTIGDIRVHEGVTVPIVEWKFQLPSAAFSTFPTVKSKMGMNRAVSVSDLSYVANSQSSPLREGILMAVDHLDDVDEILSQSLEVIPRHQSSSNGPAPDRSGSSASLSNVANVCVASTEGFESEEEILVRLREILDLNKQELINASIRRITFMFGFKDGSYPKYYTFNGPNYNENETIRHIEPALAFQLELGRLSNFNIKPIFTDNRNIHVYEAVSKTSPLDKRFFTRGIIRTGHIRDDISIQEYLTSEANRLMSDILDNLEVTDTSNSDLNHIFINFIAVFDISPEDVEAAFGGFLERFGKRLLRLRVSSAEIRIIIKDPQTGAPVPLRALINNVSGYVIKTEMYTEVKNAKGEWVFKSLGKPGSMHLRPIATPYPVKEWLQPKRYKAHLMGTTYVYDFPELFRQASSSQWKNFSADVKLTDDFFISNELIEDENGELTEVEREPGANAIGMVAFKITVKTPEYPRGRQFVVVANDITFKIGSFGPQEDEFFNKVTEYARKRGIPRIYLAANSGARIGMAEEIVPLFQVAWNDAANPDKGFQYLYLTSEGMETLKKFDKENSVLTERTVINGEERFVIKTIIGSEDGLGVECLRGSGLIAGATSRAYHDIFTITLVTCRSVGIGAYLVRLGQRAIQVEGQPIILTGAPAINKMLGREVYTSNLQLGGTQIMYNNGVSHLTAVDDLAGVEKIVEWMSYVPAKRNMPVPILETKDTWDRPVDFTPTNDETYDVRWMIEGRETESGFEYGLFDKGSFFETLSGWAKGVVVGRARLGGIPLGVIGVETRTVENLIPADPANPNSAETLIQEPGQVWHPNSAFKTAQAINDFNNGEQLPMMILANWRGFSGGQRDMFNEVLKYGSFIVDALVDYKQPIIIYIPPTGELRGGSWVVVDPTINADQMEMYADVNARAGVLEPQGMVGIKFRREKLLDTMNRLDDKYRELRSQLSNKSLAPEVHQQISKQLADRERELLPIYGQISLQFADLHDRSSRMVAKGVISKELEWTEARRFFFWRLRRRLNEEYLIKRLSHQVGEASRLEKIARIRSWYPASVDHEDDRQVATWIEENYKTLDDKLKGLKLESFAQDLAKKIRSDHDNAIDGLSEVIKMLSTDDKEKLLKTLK

Consider `COc1ccc(F)cc1[C@H](Cn1c(=O)n([C@@H]2CCN(C)C2=O)c(=O)c2c(C)c(-n3nccn3)sc21)OCCC#N` [Compound I-109, 3-((R)-1-(5-fluoro-2-methoxyphenyl)-2-(5-methyl-3-((R)-1-methyl-2-oxopyrrolidin-3-yl)-2,4-dioxo-6-(2H-1,2,3-triazol-2-yl)-3,4-dihydro-thieno[2,3-d]pyrimidin-1(2H)-yl)ethoxy)propanenitrile], for which the IC50 (commonly the concentration needed to halve the response being measured) is 0.7 to 2 nM on Fungal ACC2 and 2 to 10 nM at Human ACC2. Besides, the MIC (in [1]; in the assay with C. albicans ATCC 90028; in the assay with C. krusei ATCC 6258) was 2.1 to 4 µg/mL (≈ 3.7 to 7.05 µM) each time. The IC90 is 2 µg/mL (≈ 3.52 µM) in assay [2]; over 50 µg/mL in the assay on Septoria tritici (St); over 50 µg/mL in assay [4]; 2 µg/mL (≈ 3.52 µM) in assay [5]; 0.4 µg/mL (≈ 0.705 µM) in the assay on Botrtyis cinerea (Bc); 2 µg/mL (≈ 3.52 µM) in the assay with Rhizoctonia solani (Rs). Moreover, the IC90 amounted to 0.4 µg/mL (≈ 0.705 µM) in assay [6] and 2 µg/mL (≈ 3.52 µM) in the assay with Diplodia maydis (Dm). Further, in [3], the “Barley Powdery Mildew Control at 10 ppm” value is recorded as “A (provided a compound having from 70% to 84% control of barley powdery mildew)”.

On to `COc1ccc(F)cc1[C@@H](O)Cn1c(=O)n([C@@H]2CCN(C)C2=O)c(=O)c2c(C)c(-n3nccn3)sc21` [Compound I-166, 1-((R)-2-(5-fluoro-2-methoxyphenyl)-2-hydroxyethyl)-5-methyl-3-((R)-1-methyl-2-oxopyrrolidin-3-yl)-6-(2H-1,2,3-triazol-2-yl)thieno[2,3-d]pyrimidine-2,4(1H,3H)-dione], for which the half-inhibitory concentration (IC50) on Fungal ACC2 was 0.7 to 2 nM; at Human ACC2, 2 to 10 nM. In addition, the IC90 in assay [2] is 10 µg/mL (≈ 19.4 µM); in the assay on Septoria tritici (St), over 50 µg/mL; in assay [4], over 50 µg/mL; in assay [5], 10 µg/mL (≈ 19.4 µM); with Botrtyis cinerea (Bc) it was 2 µg/mL (≈ 3.89 µM); in the assay with Rhizoctonia solani (Rs), 2 µg/mL (≈ 3.89 µM). Besides, the IC90 in [6] was 2 µg/mL (≈ 3.89 µM); with Diplodia maydis (Dm), 10 µg/mL (≈ 19.4 µM). Also, in assay [3], the “Barley Powdery Mildew Control at 10 ppm” value is reported as “B (provided a compound having from 50 to 69% control of barley powdery mildew)”.

With `COc1ccc(F)cc1[C@@H](O)Cn1c(=O)n([C@H]2CCN(C)C2=O)c(=O)c2c(C)c(-n3nccn3)sc21` [Compound I-164, 1-((R)-2-(5-fluoro-2-methoxyphenyl)-2-hydroxyethyl)-5-methyl-3-((S)-1-methyl-2-oxopyrrolidin-3-yl)-6-(2H-1,2,3-triazol-2-yl)thieno[2,3-d]pyrimidine-2,4(1H,3H)-dione], the IC50 at Fungal ACC2 fell in the range of 0.7 to 2 nM; on Human ACC2 it was 10 to 100 nM. Moreover, the MIC (in general, the smallest concentration in the dilution series that meets the test's criterion for growth inhibition) lay in the range of 2.1 to 4 µg/mL (≈ 4.08 to 7.77 µM) in assay [1], 2.1 to 4 µg/mL (≈ 4.08 to 7.77 µM) in the assay with C. albicans ATCC 90028 and 1.1 to 2 µg/mL (≈ 2.14 to 3.89 µM) in the assay with C. krusei ATCC 6258. Also, the IC90 in [2] was 2 µg/mL (≈ 3.89 µM); in the assay with Septoria tritici (St) it was over 50 µg/mL; in assay [4] it was over 50 µg/mL; in assay [5], 10 µg/mL (≈ 19.4 µM); with Botrtyis cinerea (Bc), 2 µg/mL (≈ 3.89 µM); in the assay with Rhizoctonia solani (Rs), 0.4 µg/mL (≈ 0.777 µM). The IC90 is 0.4 µg/mL (≈ 0.777 µM) in assay [6] and over 50 µg/mL in the assay on Diplodia maydis (Dm). Moreover, in assay [3], the “Barley Powdery Mildew Control at 10 ppm” value is “B (provided a compound having from 50 to 69% control of barley powdery mildew)”.

Consider `COc1ccc(F)cc1[C@H](Cn1c(=O)n([C@H]2CCN(C)C2=O)c(=O)c2c(C)c(-n3nccn3)sc21)OCCC#N` [Compound I-108, 3-((R)-1-(5-fluoro-2-methoxyphenyl)-2-(5-methyl-3-((S)-1-methyl-2-oxopyrrolidin-3-yl)-2,4-dioxo-6-(2H-1,2,3-triazol-2-yl)-3,4-dihydro-thieno[2,3-d]pyrimidin-1 (2H)-yl)ethoxy)propanenitrile], for which the IC50 lay in the range of 0.7 to 2 nM at Fungal ACC2 and 2 to 10 nM at Human ACC2. Also, the MIC (in [1]; in the assay with C. albicans ATCC 90028; in the assay with C. krusei ATCC 6258) was 2.1 to 4 µg/mL (≈ 3.7 to 7.05 µM) in each case. The IC90 in assay [2] is 2 µg/mL (≈ 3.52 µM); in the assay with Septoria tritici (St), over 50 µg/mL; in [4], over 50 µg/mL; in assay [5] it was 10 µg/mL (≈ 17.6 µM); in the assay with Botrtyis cinerea (Bc), 0.4 µg/mL (≈ 0.705 µM); in the assay with Rhizoctonia solani (Rs) it was 2 µg/mL (≈ 3.52 µM). Besides, the IC90 in [6] amounted to 0.08 µg/mL (≈ 0.141 µM); in the assay on Diplodia maydis (Dm), 10 µg/mL (≈ 17.6 µM). Further, the “Barley Powdery Mildew Control at 10 ppm” value in [3] is listed as “AA (provided a compound having >85% control of barley powdery mildew)”.

Take `COc1ccc(F)cc1[C@H](Cn1c(=O)n([C@@]2(C)CNC(=O)C2)c(=O)c2c(C)c(-n3nccn3)sc21)OCCO` [Compound I-118, 1-((R)-2-(5-fluoro-2-methoxyphenyl)-2-(2-hydroxy-ethoxy)ethyl)-5-methyl-3-((R)-3-methyl-5-oxopyrrolidin-3-yl)-6-(2H-1,2,3-triazol-2-yl)thieno[2,3-d]pyrimidine-2,4(1H,3H)-dione]: the IC50 lay in the range of 2 to 10 nM at Fungal ACC2 and 10 to 100 nM on Human ACC2. Moreover, the MIC (in assay [1]; in the assay on C. albicans ATCC 90028; with C. krusei ATCC 6258) was 2.1 to 4 µg/mL (≈ 3.76 to 7.16 µM) each time.

For `COc1ccccc1[C@H](Cn1c(=O)n([C@H]2CCN(C)C2=O)c(=O)c2c(C)c(-n3nccn3)sc21)OC` [Compound I-171, 1-((R)-2-methoxy-2-(2-methoxyphenyl)ethyl)-5-methyl-3-((S)-1-methyl-2-oxopyrrolidin-3-yl)-6-(2H-1,2,3-triazol-2-yl)thieno[2,3-d]pyrimidine-2,4(1H,3H)-dione], the results for the IC50 on Fungal ACC2 and against Human ACC2 were 2 to 10 nM and 10 to 100 nM, respectively. Further, the MIC (in [1]; in the assay with C. albicans ATCC 90028; in the assay on C. krusei ATCC 6258) was 2.1 to 4 µg/mL (≈ 4.11 to 7.83 µM) throughout.
